This is an account of results in ChEMBL document CHEMBL1201862, “PubChem BioAssay data set” (2004).

Activity calls are given as the source filed them.

The nature of experiment [1]: inhibitors of intracellular T. cruzi replication, confirmation, NIH3T3 host cells, beta-gal luminescence (AID 2044).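 Also: intracellular parasites grown in NIH/3T3 mouse fibroblasts as host cells; luminescent beta-galactosidase reporter signal from transgenic T. cruzi replicating inside host cells; inhibitors lower the luminescence signal.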 In kind it is functional, cell-based.
Experiment [2] concerns the target T1, Small ubiquitin-related modifier 1 (Homo sapiens, UniProt P63165). As to the kind of experiment: inhibitors of SUMO1 peptide binding, dose response, biochemical, fluorescence polarization, uHTS hits (AID 624382). Type of experiment: functional. The settings on record: read-out: IC50_Mean.
Experiment [3] can be described thus: cytotoxicity toward NIH3T3 fibroblasts, dose response, counter-screen, cell-based, ATP luminescence, mouse fibroblasts (AID 2010).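 Also: cells exposed to compound for about 90 hours before reading.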 Type of experiment: functional.
Experiment [4] has as its target T1, Small ubiquitin-related modifier 1. Kind of experiment: inhibitors of SUMO1 partner interactions, dose response, biochemical, FRET (AID 624383). In kind it is functional. To be noted: read-out: IC50_Mean.
In experiment [5] the target is Ras and Rab interactor 1/Tyrosine-protein kinase ABL1 (Homo sapiens, UniProt P00519+Q13671). In kind it is functional.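 Also: biochemical TR-FRET dose-response test measuring inhibition of binding between Rin1 and Abl proteins.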
Experiment [6] deals with Photoreceptor-specific nuclear receptor (Homo sapiens, UniProt Q9Y5X4). In kind it is functional, cell-based.
Experiment [7] has as its target T2, Probable nicotinate-nucleotide adenylyltransferase (Staphylococcus aureus (strain N315), UniProt P65502). In kind it is functional, Staphylococcus aureus subsp. aureus N315. To be noted: read-out: IC50_Mean.
For experiment [8], the target named is T2, Probable nicotinate-nucleotide adenylyltransferase. Type of experiment: functional, Staphylococcus aureus subsp. aureus N315.
The nature of experiment [9]: THP-1 cell cytotoxicity, dose response, cytotoxicity control for Vif-APOBEC3G degradation inhibitor project, THP-1 cells (AID 1117359). Type of experiment: functional. The settings on record: Human immunodeficiency virus 1, THP-1.
Experiment [10] can be described thus: Luminescence Cell-Based Dose Retest to Confirm Inhibitors of Cancer Stem Cells. [Related pubchem assays (depositor defined):AID2717, AID2721]. Type of experiment: functional. The settings on record: Homo sapiens.
The target in experiment [11] is T3, Adenosylmethionine-8-amino-7-oxononanoate aminotransferase (Mycobacterium tuberculosis, UniProt P9WQ81).
T3 sequence (P9WQ81 whole entry): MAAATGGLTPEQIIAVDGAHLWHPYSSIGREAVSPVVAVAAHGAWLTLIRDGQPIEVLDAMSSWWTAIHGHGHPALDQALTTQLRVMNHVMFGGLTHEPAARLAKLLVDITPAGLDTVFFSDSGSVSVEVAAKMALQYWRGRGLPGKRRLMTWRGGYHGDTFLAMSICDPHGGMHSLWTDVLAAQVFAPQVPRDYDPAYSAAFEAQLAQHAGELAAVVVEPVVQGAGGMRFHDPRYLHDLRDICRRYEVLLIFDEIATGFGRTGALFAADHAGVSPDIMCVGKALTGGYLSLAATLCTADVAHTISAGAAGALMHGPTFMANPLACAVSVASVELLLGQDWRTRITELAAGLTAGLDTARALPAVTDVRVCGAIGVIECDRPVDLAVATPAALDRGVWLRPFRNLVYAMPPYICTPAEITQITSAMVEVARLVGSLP
As to the kind of experiment: Mycobacterium tuberculosis BioA enzyme inhibitor Measured in Biochemical System Using Plate Reader - 2163-02_Inhibitor_Dose_CherryPick_Activity. Type of experiment: functional, Mycobacterium tuberculosis UT205.

The nature of experiment [12]: Vero E6 cell cytotoxicity, dose response, cytotoxicity control for non-replicating M. tuberculosis project, secondary assay (AID 492998). To be noted: Vero C1008. In kind it is functional, VeroE6.
Experiment [13] can be described thus: THP-1 cell cytotoxicity, dose response, cytotoxicity control for non-replicating M. tuberculosis project (AID 489025). In kind it is functional.
A short description of experiment [14]: HeLa cell cytotoxicity, dose response, cytotoxicity control for MgcRacGAP inhibitor project (AID 624300). Type of experiment: functional.
Experiment [15] is described as follows: HepG2 cell cytotoxicity, dose response, cytotoxicity control for non-replicating M. tuberculosis project (AID 489018). Type of experiment: functional. The settings on record: Mycobacterium tuberculosis.
Experiment [16] concerns the target T4, Replicative DNA helicase DnaB (Mycobacterium tuberculosis, UniProt P9WMR3).
T4 sequence (P9WMR3 whole entry): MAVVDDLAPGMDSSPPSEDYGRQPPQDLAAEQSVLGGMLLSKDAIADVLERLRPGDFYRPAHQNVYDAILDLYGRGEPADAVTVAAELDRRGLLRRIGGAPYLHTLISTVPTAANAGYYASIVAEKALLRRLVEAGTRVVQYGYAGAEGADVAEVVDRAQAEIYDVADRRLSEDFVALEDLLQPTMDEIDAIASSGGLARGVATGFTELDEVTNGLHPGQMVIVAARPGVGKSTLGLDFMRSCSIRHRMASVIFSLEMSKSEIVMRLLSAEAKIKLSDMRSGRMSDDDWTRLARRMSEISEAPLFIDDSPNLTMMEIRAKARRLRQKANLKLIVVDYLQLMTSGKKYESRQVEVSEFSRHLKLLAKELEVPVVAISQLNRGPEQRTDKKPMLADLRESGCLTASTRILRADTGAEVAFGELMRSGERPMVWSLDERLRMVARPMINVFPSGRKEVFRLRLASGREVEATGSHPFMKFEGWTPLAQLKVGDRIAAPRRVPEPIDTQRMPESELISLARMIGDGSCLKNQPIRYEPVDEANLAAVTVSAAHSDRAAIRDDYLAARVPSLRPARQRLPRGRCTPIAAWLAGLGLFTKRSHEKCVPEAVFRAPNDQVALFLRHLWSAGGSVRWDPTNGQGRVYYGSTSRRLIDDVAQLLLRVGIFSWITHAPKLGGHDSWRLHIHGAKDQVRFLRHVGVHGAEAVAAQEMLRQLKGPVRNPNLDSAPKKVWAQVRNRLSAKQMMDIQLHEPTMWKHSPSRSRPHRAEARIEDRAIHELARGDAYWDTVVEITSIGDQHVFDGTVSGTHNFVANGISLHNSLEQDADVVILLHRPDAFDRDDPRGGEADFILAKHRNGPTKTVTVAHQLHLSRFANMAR
As to the kind of experiment: DnaB intein splicing inhibitors, dose response, biochemical, cell-free fluorescence (AID 449749). In kind it is functional.

The next experiment deals with T5, Protein RecA (Mycobacterium tuberculosis, UniProt P9WHJ3).
T5 sequence (P9WHJ3 whole entry): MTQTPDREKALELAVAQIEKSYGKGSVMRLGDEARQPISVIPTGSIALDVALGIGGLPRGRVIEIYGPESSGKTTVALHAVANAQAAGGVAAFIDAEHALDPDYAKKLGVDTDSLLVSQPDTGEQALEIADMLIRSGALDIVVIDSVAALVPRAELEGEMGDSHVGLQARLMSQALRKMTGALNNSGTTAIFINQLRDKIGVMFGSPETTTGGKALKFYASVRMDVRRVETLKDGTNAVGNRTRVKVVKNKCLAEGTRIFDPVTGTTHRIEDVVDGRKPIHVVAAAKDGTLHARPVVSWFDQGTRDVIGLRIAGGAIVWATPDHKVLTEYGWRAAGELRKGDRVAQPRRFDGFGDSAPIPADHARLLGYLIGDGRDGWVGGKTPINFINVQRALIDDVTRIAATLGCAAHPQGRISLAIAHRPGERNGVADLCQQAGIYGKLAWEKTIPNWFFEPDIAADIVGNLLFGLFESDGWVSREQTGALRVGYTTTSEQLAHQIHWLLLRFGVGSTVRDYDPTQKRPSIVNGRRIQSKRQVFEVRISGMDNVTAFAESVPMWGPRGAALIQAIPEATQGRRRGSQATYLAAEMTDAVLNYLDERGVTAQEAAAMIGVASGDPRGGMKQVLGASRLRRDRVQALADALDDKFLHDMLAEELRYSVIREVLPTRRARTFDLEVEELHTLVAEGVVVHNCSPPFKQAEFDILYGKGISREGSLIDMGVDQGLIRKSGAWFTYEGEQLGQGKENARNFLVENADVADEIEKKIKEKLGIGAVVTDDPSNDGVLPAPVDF
Kind of experiment: Fluorescence Cell-Free Homogeneous Dose Retest to Identify Inhibitors of RecA-Intein Splicing Activity. [Related pubchem assays (depositor defined):AID2097, AID2223, AID489010, AID492950]. In kind it is functional.

In the next experiment the test system is Vero. Kind of experiment: Vero cell cytotoxicity, cytotoxicity control for flavivirus capping enzyme inhibitors (AID 588742). In kind it is functional. The settings on record: Chlorocebus sabaeus.
A further experiment concerns the target Genome polyprotein (dengue virus type 2, UniProt P29990). Kind of experiment: Dengue-2 NS5 methyltransferase inhibitors, primary screen, biochemical, confirmation dose response (AID 588689). In kind it is functional.
Experiment [17] addresses T6, Low molecular weight phosphotyrosine protein phosphatase (Homo sapiens, UniProt P24666).
T6 sequence (P24666 whole entry): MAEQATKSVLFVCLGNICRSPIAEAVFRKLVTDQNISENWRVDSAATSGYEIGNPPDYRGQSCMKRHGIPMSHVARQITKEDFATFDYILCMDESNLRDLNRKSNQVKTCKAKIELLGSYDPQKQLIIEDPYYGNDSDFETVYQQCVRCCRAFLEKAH
Type of experiment: functional. To be noted: read-out: IC50_Mean.

T1 sequence (P63165 whole entry): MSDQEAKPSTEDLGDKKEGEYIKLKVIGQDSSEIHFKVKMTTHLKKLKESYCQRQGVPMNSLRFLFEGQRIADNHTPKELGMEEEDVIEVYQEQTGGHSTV
T2 sequence (P65502 whole entry): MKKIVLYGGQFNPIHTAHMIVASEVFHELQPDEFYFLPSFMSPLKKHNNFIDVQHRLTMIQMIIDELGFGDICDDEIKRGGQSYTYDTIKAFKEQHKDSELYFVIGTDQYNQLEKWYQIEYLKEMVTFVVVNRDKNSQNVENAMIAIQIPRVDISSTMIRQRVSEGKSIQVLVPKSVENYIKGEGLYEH
Photoreceptor-specific nuclear receptor, sequence (Q9Y5X4 whole entry): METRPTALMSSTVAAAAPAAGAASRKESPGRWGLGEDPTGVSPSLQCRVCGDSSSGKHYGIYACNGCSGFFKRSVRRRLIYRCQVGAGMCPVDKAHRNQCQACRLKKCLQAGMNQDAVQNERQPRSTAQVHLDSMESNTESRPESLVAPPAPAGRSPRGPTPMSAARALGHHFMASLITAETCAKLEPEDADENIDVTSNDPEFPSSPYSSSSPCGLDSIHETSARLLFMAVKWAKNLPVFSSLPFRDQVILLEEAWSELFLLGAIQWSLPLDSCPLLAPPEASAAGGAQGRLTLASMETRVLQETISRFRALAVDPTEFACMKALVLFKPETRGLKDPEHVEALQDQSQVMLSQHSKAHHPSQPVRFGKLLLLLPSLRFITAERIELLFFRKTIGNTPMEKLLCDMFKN
Ras and Rab interactor 1/Tyrosine-protein kinase ABL1, sequence (P00519 whole entry): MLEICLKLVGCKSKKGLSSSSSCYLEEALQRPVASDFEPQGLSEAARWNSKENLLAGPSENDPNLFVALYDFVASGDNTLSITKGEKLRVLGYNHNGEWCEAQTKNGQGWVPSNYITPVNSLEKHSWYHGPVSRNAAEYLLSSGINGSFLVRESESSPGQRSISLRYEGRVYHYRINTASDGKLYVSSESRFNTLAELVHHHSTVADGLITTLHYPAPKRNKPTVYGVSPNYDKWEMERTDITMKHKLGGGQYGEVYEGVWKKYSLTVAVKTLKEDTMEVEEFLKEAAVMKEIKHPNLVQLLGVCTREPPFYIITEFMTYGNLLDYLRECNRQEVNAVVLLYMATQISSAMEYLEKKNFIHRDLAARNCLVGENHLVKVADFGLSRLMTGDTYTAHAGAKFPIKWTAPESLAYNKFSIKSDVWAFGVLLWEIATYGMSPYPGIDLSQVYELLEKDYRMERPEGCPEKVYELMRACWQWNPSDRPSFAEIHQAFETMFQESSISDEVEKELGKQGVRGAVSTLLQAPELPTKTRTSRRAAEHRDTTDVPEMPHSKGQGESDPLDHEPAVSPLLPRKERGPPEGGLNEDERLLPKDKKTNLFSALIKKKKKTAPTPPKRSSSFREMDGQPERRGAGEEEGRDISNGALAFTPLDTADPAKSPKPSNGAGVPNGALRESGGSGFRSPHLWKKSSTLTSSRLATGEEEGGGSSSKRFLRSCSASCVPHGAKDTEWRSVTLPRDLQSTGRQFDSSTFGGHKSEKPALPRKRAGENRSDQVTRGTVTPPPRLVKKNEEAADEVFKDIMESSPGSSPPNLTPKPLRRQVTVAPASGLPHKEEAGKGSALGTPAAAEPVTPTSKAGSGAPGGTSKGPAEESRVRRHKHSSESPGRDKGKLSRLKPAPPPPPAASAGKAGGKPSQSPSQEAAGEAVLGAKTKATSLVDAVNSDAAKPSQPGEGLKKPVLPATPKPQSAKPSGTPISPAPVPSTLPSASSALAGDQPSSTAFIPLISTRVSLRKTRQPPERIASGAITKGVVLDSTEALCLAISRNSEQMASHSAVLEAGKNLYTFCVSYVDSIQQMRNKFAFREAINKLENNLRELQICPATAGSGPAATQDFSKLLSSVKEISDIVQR
Ras and Rab interactor 1/Tyrosine-protein kinase ABL1, sequence (Q13671 whole entry): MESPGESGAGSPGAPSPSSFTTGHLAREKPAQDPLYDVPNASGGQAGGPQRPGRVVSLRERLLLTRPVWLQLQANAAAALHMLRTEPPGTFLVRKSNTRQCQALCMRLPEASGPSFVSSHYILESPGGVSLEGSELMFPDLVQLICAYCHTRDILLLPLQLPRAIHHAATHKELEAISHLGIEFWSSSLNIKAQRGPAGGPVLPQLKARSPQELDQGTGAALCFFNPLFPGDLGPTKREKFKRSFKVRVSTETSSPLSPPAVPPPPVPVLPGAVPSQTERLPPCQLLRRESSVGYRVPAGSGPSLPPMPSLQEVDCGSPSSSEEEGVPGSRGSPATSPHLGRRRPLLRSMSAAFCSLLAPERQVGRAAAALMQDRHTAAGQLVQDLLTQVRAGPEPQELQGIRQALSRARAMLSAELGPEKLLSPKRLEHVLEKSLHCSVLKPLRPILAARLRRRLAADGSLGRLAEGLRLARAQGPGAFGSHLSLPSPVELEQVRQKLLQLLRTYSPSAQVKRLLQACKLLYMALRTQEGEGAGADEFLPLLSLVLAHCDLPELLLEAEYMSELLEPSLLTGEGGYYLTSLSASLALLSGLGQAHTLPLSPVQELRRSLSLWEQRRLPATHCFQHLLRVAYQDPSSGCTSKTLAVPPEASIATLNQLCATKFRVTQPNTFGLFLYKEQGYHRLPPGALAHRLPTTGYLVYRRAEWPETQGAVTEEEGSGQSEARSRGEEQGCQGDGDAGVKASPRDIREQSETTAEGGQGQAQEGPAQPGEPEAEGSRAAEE
Genome polyprotein, sequence (P29990 2492-3391 limits assumed): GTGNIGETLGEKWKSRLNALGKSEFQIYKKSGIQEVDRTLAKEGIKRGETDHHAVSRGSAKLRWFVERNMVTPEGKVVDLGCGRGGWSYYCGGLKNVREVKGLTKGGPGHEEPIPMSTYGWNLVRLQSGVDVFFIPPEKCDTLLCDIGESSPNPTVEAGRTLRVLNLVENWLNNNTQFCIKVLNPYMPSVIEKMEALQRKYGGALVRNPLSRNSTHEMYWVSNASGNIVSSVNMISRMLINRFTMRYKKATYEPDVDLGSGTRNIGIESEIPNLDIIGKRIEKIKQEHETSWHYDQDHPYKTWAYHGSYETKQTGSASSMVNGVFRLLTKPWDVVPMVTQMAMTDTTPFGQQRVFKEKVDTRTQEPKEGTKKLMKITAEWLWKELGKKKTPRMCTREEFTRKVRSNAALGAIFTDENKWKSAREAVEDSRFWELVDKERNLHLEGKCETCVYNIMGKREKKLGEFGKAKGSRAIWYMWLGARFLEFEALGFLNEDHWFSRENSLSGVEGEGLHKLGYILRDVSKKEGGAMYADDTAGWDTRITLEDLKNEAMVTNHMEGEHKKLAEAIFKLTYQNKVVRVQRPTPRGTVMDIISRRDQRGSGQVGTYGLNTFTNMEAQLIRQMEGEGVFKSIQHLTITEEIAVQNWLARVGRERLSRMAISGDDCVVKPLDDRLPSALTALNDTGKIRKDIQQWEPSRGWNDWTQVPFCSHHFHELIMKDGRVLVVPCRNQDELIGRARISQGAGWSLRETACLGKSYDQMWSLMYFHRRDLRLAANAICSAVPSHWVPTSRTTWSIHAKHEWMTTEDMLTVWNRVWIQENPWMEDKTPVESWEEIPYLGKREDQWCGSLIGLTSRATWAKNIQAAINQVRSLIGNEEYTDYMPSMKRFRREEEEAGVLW

Take `O=C(Nc1cccc(NC(=O)c2ccc(-c3ccc(Br)cc3)o2)c1)c1ccco1`: the values for the EC50 in experiment [1] and in [3] were 2.73 µM (active) and > 30 µM (not active), respectively. Besides, the IC50 in experiment [2] is > 66.6 µM (inactive); in experiment [4], 6.92 µM (active).
As for `CCOC(=O)c1ccc(NC(=O)NC2CC3CCC(C2)N3)cc1` (stereo not drawn), the IC50 in [5] is 31.7 µM (inactive).
As for `c1coc(CNc2ncnc3ccccc23)c1`, the IC50 in [6] was 4.34 µM (active).
Take `O=C(Nc1ccn([C@H]2CC[C@@H](CO)O2)c(=O)n1)c1ccccc1`: the IC50 in experiment [5] was 66.6 µM (inactive).
Regarding `O=C(NC(=S)Nc1cccc(S(=O)(=O)NC2=NCCC2)c1)c1cc(-c2ccco2)nc2ccccc12`, the results for the IC50 in [7] and in experiment [8] were 35 µM (active) and 10.4 µM (active), respectively. Further, the CC50 in experiment [9] was > 40 µM (active).
`Cc1ccc([N+](=O)[O-])cc1-c1ccc(/C=C(\C#N)c2[nH]nc(N)c2C#N)o1`: the IC50 in experiment [2] is > 66.6 µM (inactive); in [4], 1.74 µM (active). Also, in experiment [10], the AC50 is 2.98 µM (active).
Turning to `Cc1cnc(NC(=O)C2CC(=O)N(c3ccc4c(c3)OCCO4)C2)s1` (stereo not drawn), the IC50 in experiment [6] is 7.49 µM (active).
Consider `O=C(Nc1ccc(S(=O)(=O)Nc2nccs2)cc1)c1cc(-c2ccccc2Cl)nc2ccccc12`, for which the IC50 in experiment [7] is 22.2 µM (active); in [8] it was 6.99 µM (active).
Regarding `C[C@@H]1CN([C@H](C)CO)C(=O)Cc2cc(NC(=O)Cn3cnnn3)ccc2O[C@H]1CN(C)Cc1ccc2c(c1)OCO2`, in experiment [11], the AC50 was 7.3 µM (active).
In the case of `COc1cc(CNCCNC(=O)c2nonc2N)ccc1OCc1ccc(Cl)cc1`, the CC50 in [12] was > 20 µM (active); in [13] it was 24.3 µM (active); in [14] it was 75.4 µM (active); in [15], > 20 µM (active).
For the compound `CCCc1cc(=O)oc2c3c(cc(OCC(=O)NCCCn4ccnc4)c12)OC(C)(C)CC3`, the AC50 in experiment [11] is 5.93 µM (active).
On the same count and under the same terms, then `O=C(c1cccc(F)c1)N1CC[C@@H]2[C@H](CO)Nc3ccc(-c4cccc(F)c4)cc3[C@@H]21`, with 0.185 µM (active).
For `CCOC(=O)c1c(NC(=O)/C=C/C(=O)O)sc(C)c1-c1ccc(C)c(C)c1`, the AC50 in experiment [16] is 8.39 µM (active). Further, at Protein RecA, the concentration for a half-maximal effect (EC50) was 1.89 µM (active). For the same compound, the CC50 with Vero was > 40 µM (active). Further, on Genome polyprotein, the IC50 was 75.1 µM (active).
For `Clc1ccc(Br)cc1-c1nc(-c2ccncc2)no1`, the IC50 in experiment [17] was 12.2 µM (active).
